Assay results as given in ChEMBL document CHEMBL1129701, “-Vinyllysine and -vinylarginine are time-dependent inhibitors of their cognate decarboxylases” (Bioorg Med Chem Lett, 1996).

What was measured:
Escherichia coli [1] = test: Rate of inactivation against L-arginine decarboxylase (ADC) from Escherichia coli was determined in UV time dependent assay.
[2] = Compound was evaluated for binding affinity towards L-arginine decarboxylase (ADC) from Escherichia coli in UV time dependent assay.
Escherichia coli [3] = test: Compound was evaluated for inhibition of L-arginine decarboxylase (ADC) from Escherichia coli in UV time dependent assay.
[4] = Half life was reported; assay type: ADME
bacterium cadaveris [5] = test: Compound was evaluated for inhibition L-lysine decarboxylase (LDC) from Bacterium cadaveris in UV time dependent assay.
bacterium cadaveris [6] = test: Rate of inactivation against L-lysine decarboxylase (LDC) from Bacterium cadaveris was determined in UV time dependent assay.
[7] = Compound was evaluated for binding affinity against L-lysine decarboxylase (LDC) from Bacterium cadaveris in UV time dependent assay.

Row | K inact (Escherichia coli [1]) [min⁻¹] | Km (Escherichia coli [3]) [µM] | Structure (SMILES) | Ki [2] [µM] | half-life [4] [min] | Km (bacterium cadaveris [5]) [µM] | K inact (bacterium cadaveris [6]) [min⁻¹] | Ki [7] [µM]
1 | 0.036 | 180 | C=C[C@](N)(CCCNC(=N)N)C(=O)O (racemic) | 1800 | 19 | – | – | –
2 | – | – | C=C[C@](N)(CCCCN)C(=O)O (racemic) | – | 35 | 640 | 0.02 | 500
